One test deals with B. subtilis. Description: Synergy/antagonism two-drug combination assay, B. subtilis. The test is classed as cell-based.
The subject of another test is S. aureus. Description: Synergy/antagonism two-drug combination assay, S. aureus. The test is classed as cell-based.
The test system of a further test is A. baumannii. Description: Synergy/antagonism two-drug combination assay, A. baumannii. Type of test: cell-based.
The subject of a further test is E. coli. Description: Synergy/antagonism two-drug combination assay, E. coli. Type of test: cell-based.
For another test, the system named is K. pneumoniae. Description: Synergy/antagonism two-drug combination assay, K. pneumoniae. The test is classed as cell-based.
Another test has as its system P. aeruginosa. Description: Synergy/antagonism two-drug combination assay, P. aeruginosa. The test is classed as cell-based.
In a further test the target is EcUPPP (Escherichia coli, UniProt P60932). Description: EcUPPP inhibition, malachite-green assay. Type of test: biochemical, E. coli. Particulars: read-out: IC50 EuUPPP.
Chain of EcUPPP (P60932 whole entry): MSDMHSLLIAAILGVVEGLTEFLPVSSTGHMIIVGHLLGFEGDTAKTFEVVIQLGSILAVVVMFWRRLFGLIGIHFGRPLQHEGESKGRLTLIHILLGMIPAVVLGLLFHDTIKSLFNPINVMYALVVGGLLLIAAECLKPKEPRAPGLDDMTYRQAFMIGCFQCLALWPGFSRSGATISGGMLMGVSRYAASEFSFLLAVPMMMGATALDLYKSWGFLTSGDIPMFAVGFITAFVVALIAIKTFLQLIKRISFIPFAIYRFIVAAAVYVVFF

With `CC1(C)S[C@@H]2[C@H](NC(=O)[C@H](N)c3ccccc3)C(=O)N2[C@H]1C(=O)O` [Ampicillin], the FIC in the test with B. subtilis (B. subtilis, combination of 32 with Ampicillin) was found to be 0.18 ± 0.041; in the test with S. aureus (S. aureus, combination of 32 with Ampicillin), 0.30 ± 0.095. For the same compound, the MIC in the test with B. subtilis (Bacillus subtilis) and in the test on S. aureus (Staphylococcus aureus) was 0.5 µg/mL in each case.
Take `CC1(C)S[C@@H]2[C@H](NC(=O)C(C(=O)O)c3ccccc3)C(=O)N2[C@H]1C(=O)O` (stereo partly drawn) [Carbenicillin]: the FIC in the test on B. subtilis (B. subtilis, combination of 32 with Carbenicillin) is reported as 0.25 ± 0.043; in the test on S. aureus (S. aureus, combination of 32 with Carbenicillin) it was 0.27 ± 0.015. Also, the MIC came to 5 µg/mL with B. subtilis (Bacillus subtilis) and 15 µg/mL in the test on S. aureus (Staphylococcus aureus).
In the case of `CO/N=C(\C(=O)N[C@@H]1C(=O)N2C(C(=O)O)=C(COC(C)=O)CS[C@H]12)c1csc(N)n1` [Cefotaxime], the FIC was found to be 0.30 ± 0.044 with B. subtilis (B. subtilis, combination of 32 with Cefotaxime) and 0.21 ± 0.048 in the test with S. aureus (S. aureus, combination of 32 with Cefotaxime). Besides, the MIC in the test with B. subtilis (Bacillus subtilis) was determined as 2.5 µg/mL; in the test on S. aureus (Staphylococcus aureus) it was 2 µg/mL.
Consider `O=C(N[C@H](CO)[C@H](O)c1ccc([N+](=O)[O-])cc1)C(Cl)Cl` [Chloramphenicol], for which the FIC is 0.55 ± 0.13 in the test with B. subtilis (B. subtilis, combination of 32 with Chloramphenicol) and 0.71 ± 0.11 with S. aureus (S. aureus, combination of 32 with Chloramphenicol). Also, the MIC worked out at 0.5 µg/mL in the test on B. subtilis (Bacillus subtilis) and 5 µg/mL with S. aureus (Staphylococcus aureus).
As for `C[C@@H]1O[C@@H]1P(=O)(O)O` [Fosfomycin], the FIC in the test with B. subtilis (B. subtilis, combination of 32 with Fosfomycin) worked out at 0.21 ± 0.025; in the test with S. aureus (S. aureus, combination of 32 with Fosfomycin) it was 0.13 ± 0.022. For the same compound, the MIC in the test with B. subtilis (Bacillus subtilis) and in the test with S. aureus (Staphylococcus aureus) was 200 µg/mL in each case.
For `NC[C@H]1O[C@H](O[C@H]2[C@H](O)[C@@H](O[C@H]3O[C@H](CO)[C@@H](O)[C@H](N)[C@H]3O)[C@H](N)C[C@@H]2N)[C@H](O)[C@@H](O)[C@@H]1O` [Kanamycin], the FIC is 0.61 ± 0.097 with B. subtilis (B. subtilis, combination of 32 with Kanamycin) and 0.81 ± 0.17 in the test with S. aureus (S. aureus, combination of 32 with Kanamycin). Also, the MIC with B. subtilis (B. subtilis, drug acting alone) came out at 1.5 µg/mL; with S. aureus (S. aureus, drug acting alone) it was 1.5 µg/mL.
As to `CN[C@@H]1[C@H](O)[C@H](NC)[C@H]2O[C@@]3(O)C(=O)C[C@@H](C)O[C@H]3O[C@@H]2[C@H]1O` [Spectinomycin], the FIC in the test on S. aureus (S. aureus, combination of 32 with Spectinomycin) was found to be 0.45 ± 0.091. For the same compound, the minimal inhibitory concentration (MIC) with S. aureus (Staphylococcus aureus) was found to be 40 µg/mL.
On to `Cc1cc(NS(=O)(=O)c2ccc(N)cc2)no1` [Sulfamethoxazole], for which the FIC is given as 0.87 ± 0.23 in the test with B. subtilis (B. subtilis, combination of 32 with Sulfamethoxazole) and 0.75 ± 0.20 with S. aureus (S. aureus, combination of 32 with Sulfamethoxazole). For the same compound, the MIC in the test with B. subtilis (Bacillus subtilis) and in the test with S. aureus (Staphylococcus aureus) was 200 µg/mL throughout.
Take `CN(C)[C@@H]1C(O)=C(C(N)=O)C(=O)[C@@]2(O)C(O)=C3C(=O)c4c(O)cccc4[C@@](C)(O)[C@H]3C[C@@H]12` [Tetracycline]: the FIC with B. subtilis (B. subtilis, combination of 32 with Tetracycline) is 0.82 ± 0.21; with S. aureus (S. aureus, combination of 32 with Tetracycline), 0.83 ± 0.38. Besides, the MIC amounted to 5 µg/mL with B. subtilis (Bacillus subtilis) and 0.5 µg/mL in the test with S. aureus (Staphylococcus aureus).
Take `COc1cc(Cc2cnc(N)nc2N)cc(OC)c1OC` [Trimethoprim]: the FIC in the test on B. subtilis (B. subtilis, combination of 32 with Trimethoprim) is reported as 0.77 ± 0.18; in the test on S. aureus (S. aureus, combination of 32 with Trimethoprim), 0.69 ± 0.32. The MIC was determined as 0.5 µg/mL with B. subtilis (Bacillus subtilis) and 15 µg/mL in the test with S. aureus (Staphylococcus aureus).
For the compound `CN[C@H](CC(C)C)C(=O)N[C@H]1C(=O)N[C@@H](CC(N)=O)C(=O)N[C@H]2C(=O)N[C@H]3C(=O)N[C@H](C(=O)N[C@H](C(=O)O)c4cc(O)cc(O)c4-c4cc3ccc4O)[C@H](O)c3ccc(c(Cl)c3)Oc3cc2cc(c3O[C@@H]2O[C@H](CO)[C@@H](O)[C@H](O)[C@H]2O[C@H]2C[C@](C)(N)[C@H](O)[C@H](C)O2)Oc2ccc(cc2Cl)[C@H]1O` [Vancomycin], the FIC is reported as 0.33 ± 0.058 in the test with B. subtilis (B. subtilis, combination of 32 with Vancomycin) and 0.19 ± 0.019 with S. aureus (S. aureus, combination of 32 with Vancomycin). The MIC with B. subtilis (Bacillus subtilis) turned out to be 0.5 µg/mL; with S. aureus (Staphylococcus aureus), 1.5 µg/mL.
With `O=CN(O)CCCP(=O)(O)O` [fosmidomycin], the FIC amounted to 0.27 ± 0.057 in the test with A. baumannii (A. baumannii, combination of 11 with fosmidomycin); 0.25 ± 0.043 in the test on B. subtilis (B. subtilis, combination of 32 with Fosmidomycin); 0.14 ± 0.13 in the test with E. coli (E. coli, combination of 11 with fosmidomycin); 0.12 ± 0.014 with K. pneumoniae (K. pneumoniae, combination of 11 with fosmidomycin); 0.18 ± 0.066 with P. aeruginosa (P. aeruginosa, combination of 11 with fosmidomycin). For the same compound, the MIC with A. baumannii (Acinetobacter baumannii) worked out at 5 µg/mL; in the test on B. subtilis (Bacillus subtilis), 5 µg/mL; in the test on E. coli (Escherichia coli), 5 µg/mL; with K. pneumoniae (Klebsiella pneumoniae) it was 5 µg/mL; in the test with P. aeruginosa (Pseudomonas aeruginosa), 3 µg/mL.
As for Bacitracin, the FIC in the test on B. subtilis (B. subtilis, combination of 32 with Bacitracin) came out at 0.12 ± 0.028; in the test on S. aureus (S. aureus, combination of 32 with Bacitracin), 0.21 ± 0.039. Also, the MIC worked out at 200 µg/mL with B. subtilis (B. subtilis, drug acting alone) and 200 µg/mL in the test on S. aureus (S. aureus, drug acting alone). Moreover, the IC50 on EcUPPP was 32 µM.

The values above are taken from paper PMC5160999 (ChemMedChem, 2016).
